Counter-ions that a name gives are not always drawn. Like-named read-outs stand apart in the source and are kept apart here.
What was measured:
[1] = tested on: T. b. brucei 427 bloodstream forms; assay: Resazurin-based T. b. brucei assay; format: cell-based; conditions: Trypanosoma brucei; T. b. brucei 427 bloodstream forms, 72 h; read-out: EC50 T. brucei
Protocol: Parasites strains adapted to culture in vitro were used. T. b. brucei Lister 427 bloodstream form parasites (information about the identity and genealogy of this strain is available at The Rockefeller University website) were grown in HMI-9 medium supplemented with 10% heat-inactivated fetal bovine serum (iFBS).
Cells in logarithmic phase of growth were added using a Multidrop dispenser (45 μL, 500 bloodstream T. b. brucei parasites per well) to 384-well Corning assay plates already containing 5 μL of each compound and controls, and incubated for 72 hours at 37°C. 10 μL of resazurin were added per well, and the plates were further incubated for 6 hours at 37°C. The final fluorescence was determined at 550–590 nm. Pentamidine at 40 nM and 0.0067% DMSO were used as […] growth controls, respectively.

[2] = tested on: T. cruzi trypomastigotes; assay: T. cruzi trypomastigote viability / rate of action assay (CellTiter-Glo bioluminescence); format: cell-based, Trypanosoma cruzi; conditions: for EC50: Trypanosoma cruzi, read-out: EC50; for EC50 / EC90/EC50 / Hill slope: Trypomastigotes
Protocol: Tulahuen T. cruzi trypomastigotes were recovered 6 days post infection from the supernatant of harvested infected L6 cells cultures after 3 hours at 37°C. 90 μL of parasite culture at a density of 5 × 10^6 cells in RPMI 1640 media were dispensed into 96 Nunc flat bottom assay plates containing 10 μL of each compound.
Parasite viability was assessed upon 24, 48 and 72 hour incubation at 37°C in 5% CO2 by adding 50 μL of CellTiter-Glo viability reagent to white 96-well microplates. After signal stabilization, bioluminescence was read. Compound concentrations ranged from 0.1 μM to 50 μM and final maximal DMSO percentage in the well was 0.05%. Results were normalized to […] control columns in each plate.

[3] = tested on: intracellular T. cruzi amastigotes; assay: Rate of kill, intracellular T. cruzi amastigotes (CPRG, 96-well); format: cell-based, Trypanosoma cruzi; conditions: Amastigotes; for EC50: Trypanosoma cruzi
Protocol: For rate of kill experiments, in vitro activity against intracellular T. cruzi amastigotes was analyzed at early time points: 24, 48 and 72 hours. The standard colorimetric transgenic assay was established in a 96-well format, with serial dilutions of compounds and 0.05% as the final maximal DMSO percentage per well. In these experiments L6 host cells were included as negative controls and CPRG conversion was monitored at 585 nm using a Versamax microplate reader (Molecular devices).

[4] = tested on: L. donovani MHOM/ET/67/HU3 transgenic intracellular amastigotes; assay: L. donovani intracellular amastigote assay (luciferase, THP-1 macrophages); format: cell-based; conditions: Leishmania donovani, THP-1, 72 h, read-out: EC50 L. donovani
Protocol: Leishmania donovani MHOM/ET/67/HU3 cells with the luciferase gene integrated into the parasite genome was obtained as described. Parasites were grown at 28°C in RPMI 1640-modified medium supplemented with 20% heat-inactivated fetal bovine serum (iFBS, Invitrogen) with […] of hygromycin B.
THP-1 cells were differentiated into macrophages with 20 ng/mL of PMA in a 96-well plate at 3 × 10^4 cells per well for 48 hours followed by 24 hours of culture in fresh medium. Cells were then infected with transgenic stationary L. donovani MHOM/ET/67/HU3 promastigotes expressing the luciferase gene at a multiplicity of infection (MOI) of 10. A volume of 100 μL of culture media containing the test compounds was added to each well and the plates were incubated at 37°C for 72 hours. Luminescence was measured using the Promega kit luciferase assay system.

With `N=C(N)c1ccc(OCCCCCOc2ccc(C(=N)N)cc2)cc1` [Pentamidine, pentamidine isethionate salt, reference compound] the EC50 [1] was 2 nM.

In the case of `CC[C@@H]([C@H](C)O)n1ncn(-c2ccc(N3CCN(c4ccc(OC[C@@H]5CO[C@@](Cn6cncn6)(c6ccc(F)cc6F)C5)cc4)CC3)cc2)c1=O` [Posaconazole, posaconazole], the “effect against extracellular forms (trypomastigotes)” value ([2]; 2 μM, 24 and 48 hours) is reported as “no effect”, the EC90/EC50 ([3]; 24 h) is reported as 5.16 and the Hill slope ([3]; 24 h) is reported as 1.33. For the same compound, the EC90/EC50 ([3]; 48 h) was 6.41, the Hill slope ([3]; 48 h) was 1.20 and the EC90/EC50 ([3]; 72 h) was 1.83. It also gave a Hill slope ([3]; 72 h) of 3.65, an EC50 ([3]; 24 h) of 5410 nM and an EC50 ([3]; 48 h) of 0.8 nM. The EC50 ([3]; 72 h) was 0.7 nM.

`C[C@@H]1[C@H](O)[C@@H](C)/C=C/C=C/C=C/C=C/C=C/C=C/C=C/[C@H](O[C@@H]2O[C@H](C)[C@@H](O)[C@H](N)[C@@H]2O)C[C@@H]2O[C@](O)(C[C@@H](O)C[C@@H](O)[C@H](O)CC[C@@H](O)C[C@@H](O)CC(=O)O[C@H]1C)C[C@H](O)[C@H]2C(=O)O` [Amphotericin B, amphotericin B, reference compound] showed an EC50 [4] of 53 nM.

`CC1CS(=O)(=O)CCN1/N=C/c1ccc([N+](=O)[O-])o1` (stereo not shown) [Nifurtimox, nifurtimox] was tested, and the “RLU Average, trypomastigote viability” value ([2]; 24 h, 0.0195312 µM, untreated 165759) was 169266 RLU, the “RLU Average, trypomastigote viability” value ([2]; 24 h, 0.0390625 µM, untreated 165759) was 166443 RLU and the “RLU Average, trypomastigote viability” value ([2]; 24 h, 0.078125 µM, untreated 165759) was 165831 RLU. The “RLU Average, trypomastigote viability” value ([2]; 24 h, 0.15625 µM, untreated 165759) was 160072 RLU, the “RLU Average, trypomastigote viability” value ([2]; 24 h, 0.3125 µM, untreated 165759) was 149962 RLU and the “RLU Average, trypomastigote viability” value ([2]; 24 h, 0.625 µM, untreated 165759) was 139314 RLU. For the same compound, the “RLU Average, trypomastigote viability” value ([2]; 24 h, 1.25 µM, untreated 165759) was 111524 RLU, the “RLU Average, trypomastigote viability” value ([2]; 24 h, 2.5 µM, untreated 165759) was 65827 RLU and the “RLU Average, trypomastigote viability” value ([2]; 24 h, 5 µM, untreated 165759) was 11749 RLU. The “RLU Average, trypomastigote viability” value ([2]; 24 h, 10 µM, untreated 165759) was 1446 RLU, the “RLU Average, trypomastigote viability” value ([2]; 48 h, 0.0195312 µM, untreated 134778) was 139199 RLU and the “RLU Average, trypomastigote viability” value ([2]; 48 h, 0.0390625 µM, untreated 134778) was 135603 RLU. For the same compound, the “RLU Average, trypomastigote viability” value ([2]; 48 h, 0.078125 µM, untreated 134778) was 135814 RLU, the “RLU Average, trypomastigote viability” value ([2]; 48 h, 0.15625 µM, untreated 134778) was 121189 RLU and the “RLU Average, trypomastigote viability” value ([2]; 48 h, 0.3125 µM, untreated 134778) was 101689 RLU. For the same compound, the “RLU Average, trypomastigote viability” value ([2]; 48 h, 0.625 µM, untreated 134778) was 74973 RLU, the “RLU Average, trypomastigote viability” value ([2]; 48 h, 1.25 µM, untreated 134778) was 27237 RLU and the “RLU Average, trypomastigote viability” value ([2]; 48 h, 2.5 µM, untreated 134778) was 4248 RLU. The “RLU Average, trypomastigote viability” value ([2]; 48 h, 5 µM, untreated 134778) was 1304 RLU, the “RLU Average, trypomastigote viability” value ([2]; 48 h, 10 µM, untreated 134778) was 430 RLU and the “RLU Average, trypomastigote viability” value ([2]; 72 h, 0.0195312 µM, untreated 74303) was 78773 RLU. For the same compound, the “RLU Average, trypomastigote viability” value ([2]; 72 h, 0.0390625 µM, untreated 74303) was 76780 RLU, the “RLU Average, trypomastigote viability” value ([2]; 72 h, 0.078125 µM, untreated 74303) was 75817 RLU and the “RLU Average, trypomastigote viability” value ([2]; 72 h, 0.15625 µM, untreated 74303) was 65552 RLU. The “RLU Average, trypomastigote viability” value ([2]; 72 h, 0.3125 µM, untreated 74303) was 53878 RLU, the “RLU Average, trypomastigote viability” value ([2]; 72 h, 0.625 µM, untreated 74303) was 44434 RLU and the “RLU Average, trypomastigote viability” value ([2]; 72 h, 1.25 µM, untreated 74303) was 6874 RLU. The “RLU Average, trypomastigote viability” value ([2]; 72 h, 2.5 µM, untreated 74303) was 861 RLU, the “RLU Average, trypomastigote viability” value ([2]; 72 h, 5 µM, untreated 74303) was 764 RLU and the “RLU Average, trypomastigote viability” value ([2]; 72 h, 10 µM, untreated 74303) was 553 RLU. For the same compound, the EC50 ([2]; 24 h) was 2080 nM, the EC50 ([2]; 48 h) was 640 nM and the EC50 ([2]; 72 h) was 600 nM. It also gave an EC90/EC50 ([2]; 24 h) of 4.04, a Hill slope ([2]; 24 h) of 1.58 and an EC90/EC50 ([2]; 48 h) of 3.61. The Hill slope ([2]; 48 h) was 1.71, the EC90/EC50 ([2]; 48 h, listed as nifurtimox) was 3.6 and the Hill slope ([2]; 48 h, listed as nifurtimox) was “below 2.1”. It also gave an EC90/EC50 ([2]; 72 h) of 3.33, a Hill slope ([2]; 72 h) of 1.83 and an EC90/EC50 ([2]; 72 h, listed as nifurtimox) of 3.3. The Hill slope ([2]; 72 h, listed as nifurtimox) was “below 2.1”, the EC90/EC50 ([3]; 24 h) was 4.07 and the Hill slope ([3]; 24 h) was 1.60. It also gave an EC90/EC50 ([3]; 48 h) of 4.16, a Hill slope ([3]; 48 h) of 1.55 and an EC90/EC50 ([3]; 72 h) of 3.03. It also gave a Hill slope ([3]; 72 h) of 1.98, an EC50 ([3]; 24 h) of 300 nM and an EC50 ([3]; 48 h) of 150 nM. The EC50 ([3]; 72 h) was 130 nM.

— publication PMC10529594, “Strasseriolides display in vitro and in vivo activity against trypanosomal parasites and cause morphological and size defects in Trypanosoma cruzi” (PLOS Neglected Tropical Diseases, 2023)
